In ChEMBL document CHEMBL1158309, “Callyspongins A and B: Novel Polyacetylene Sulfates from the Marine Sponge Callyspongia truncata That Inhibit Fertilization of Starfish Gametes” (J Nat Prod, 1996):
Values after ≈ are worked out from the molar mass of the structure shown. Active and inactive are the calls of the source. The rule behind the calls is not given here.

Legend:
[1] = Antifertilization activity in Asterias amurensis egg assessed as inhibition of egg activation after 30 mins; format: functional
[2] = Antifertilization activity in Asterias amurensis oocyte assessed as inhibition of 1-methyladenine-induced oocyte maturation at 100 uM; format: functional, cell-based
[3] = Antifertilization activity in Asterias amurensis fertilized egg assessed as inhibition of blastula development at 100 uM; format: functional
[4] = Antifertilization activity in Asterias amurensis sperm assessed as inhibition of sperm motility after 30 mins; format: functional, cell-based
[5] = Toxicity against Asterias amurensis sperm in sea water at 100 uM; format: cell-based
[6] = Toxicity against Asterias amurensis embryos lysed in sea water at 100 uM; parameters: species or system Embryo; conditions: buffer
[7] = Toxicity against Asterias amurensis egg in sea water at 100 uM; conditions: buffer

SMILES	MIC [1] [µM]	Activity [2]	Activity [3]	MIC [4] [µM]	Activity [5]	Activity [6]	Activity [7]
C#C/C=C\CCCC/C=C\C#CC#CCCCC#CC#C[C@H](COS(=O)(=O)O)OS(=O)(=O)O	6.3 (≈ 3.1 µg/mL)	inactive	inactive	50 (≈ 24.6 µg/mL)	–	–	–
C#C/C=C\CCCC/C=C\C#CC#CCCCC#CC#C[C@@H](O)CO [SIPHONODIOL]	> 200	inactive	–	13 (≈ 4.32 µg/mL)	Toxic	Toxic	Toxic
C#C/C=C\CCCC/C=C\C#CC#CCCCC#CC#C[C@@H](O)COS(=O)(=O)O	50 (≈ 20.6 µg/mL)	inactive	inactive	100 (≈ 41.3 µg/mL)	–	–	–
